Entries after “also recorded” stand apart in the source; their conditions may differ.
Tests used:
oxidized proteins = test: oxidized (carbonylated) protein immunoblot after DNP derivatization; format: cell-based, human; details: DHEA treatment
Excerpt: Glutathione plays an important role in ROS scavenging, both by acting as a cofactor for glutathione peroxidase and via direct interaction with ROS (Jones et al., “Kinetics of superoxide scavenging by glutathione: an evaluation of its role in the removal of mitochrondrial superoxide, Biochem Soc Trans 31, 1337-1339, 2003, which is incorporated herein by reference as if fully set forth). The effects of DHEA treatment on the levels of oxidized proteins were monitored in proliferating and 7 dSS fibroblasts (FIG. 20). Oxidized, carbonylated proteins were derivatized with […] and monitored with an anti-2,4, dinitrophenol antibody. […] Thus, the 7 dSS fibroblasts rely on DHEA-sensitive pathways to maintain low levels of oxidized protein.
In addition to its role in providing amino acids and energy under starvation conditions, autophagy is involved in maintenance of cellular homeostasis and resistance to tumorigenesis through degradation of old or damaged proteins and entire organelles. […] To monitor the extent of protein oxidation in proliferating and contact-inhibited fibroblasts, the protein carbonyl groups were derivatized using 2,4-dinitrophenylhydrazine (DNP), and monitored using immunoblotting with an antibody that recognizes the covalently added DNP. […]

[1] = system: spontaneous breast cancer; details: long-term treatment; female C3H (Avy/a) mice; cited from earlier work
[2] = system: primary human fibroblasts; test: caspase 3/7 activity apoptosis assay (ApoTox-Glo) in proliferating and quiescent fibroblasts; format: cell-based; details: for apoptosis-inducing effect (caspase-3/7 activity normalized to vehicle): four days treatment
Experimental: Referring to FIG. 2A, primary human fibroblasts were tested either in a proliferating state or after being induced into quiescence. Quiescence may be induced by either contact inhibition or serum starvation. Cells were treated with DHEA for four days, with bafilomycin added on the fourth day. Apoptosis was assessed based on the activity of caspase 3/7 for a fluorogenic substrate.
PPP inhibition and apoptosis analysis: Apoptosis was measured based on the levels of caspase 3/7 released into the media using the ApoTox-Glo Triplex Assay according to the manufacturer's instructions (Promega Corp., Madison, Wis.). Cells were plated in triplicate at 10,000 cells per well in white-walled, clear-bottom 96-well plates (Costar, Corning Life Sciences, Lowell, Mass.). For contact inhibition, cells were plated 7 days prior to the start of treatment, for serum starvation cells were plated 4 days prior to treatment and switched to 0.1% serum media for the remaining 3 days, while proliferating cells were plated the day prior to the start of treatment. […] Cells in serum starvation conditions were incubated in 0.1% serum during treatment as well. The apoptosis reagent was added at 100 μl per well and incubated for 1 h prior to reading. Luminescence was read from the top using a Synergy-2 plate reader (Biotek, Winooski, Vt.). Luminescence data were normalized to the vehicle only condition.
Apoptosis induction was assessed by monitoring caspase 3/7 activity using a luminescent caspase substrate. This assay is optimized for high-throughput screening in 96-well plates and allows multiple concentrations and combination of drugs to be tested in triplicate at different time points. […] Therefore, this assay was used to compare proliferating and serum-starved cells only.

[3] = system: neoplasms, lymphoblastic lymphoma; details: p53-deficient mouse; cited from earlier work
[4] = system: low-grade cervical lesions; details: 12 women with low-grade dysplasia; intravaginal; cited from earlier work
[5] = system: four day serum starved fibroblasts; test: induction of apoptosis in quiescent fibroblasts by DHEA and/or autophagy inhibitor combined with proteasome inhibitors; format: cell-based, human; details: DHEA alone; 48 hour treatment
Experimental: Referring to FIG. 17, the effect of treatment using DHEA and/or an autophagy inhibitor combined with proteasome inhibitors on apoptosis in quiescent cells was analyzed.
In this experiment, the proteasome inhibitor, bortezomib, was used in varying concentrations with DHEA during a 48 hour treatment.

## C[C@]12CC[C@H](O)CC1=CC[C@@H]1[C@@H]2CC[C@]2(C)C(=O)CC[C@@H]12 [DHEA, dehydroepiandrosterone]
Oxidized proteins; 7 dSS fibroblasts
  oxidized protein levels: significantly increased
Oxidized proteins; proliferating fibroblasts
  oxidized protein levels: little effect
[1]
  spontaneous breast cancer occurrence: inhibit spontaneous breast cancer occurrence
[2]; fibroblasts confluent 11 days (CI11) vs proliferating
  apoptosis-inducing effect (caspase-3/7 activity normalized to vehicle): significantly stronger; also recorded: statistically significantly different at all doses except 100 μM
[2]; fibroblasts serum-starved seven days (SS7) vs proliferating
  apoptosis-inducing effect (caspase-3/7 activity normalized to vehicle): yet stronger; also recorded: particularly sensitive; also recorded: statistically significantly different at all doses
[2]; treatment with DHEA alone
  caspase induction: 6- to 8 fold
[3]
  death due to neoplasms: delay death due to neoplasms
[4]
  regression of low-grade cervical lesions: may promote regression of low-grade cervical lesions
  safety: safe to administer
[5]
  increase in apoptosis induction: ~2 fold

Source: patent US20130064815A1, “INDUCING APOPTOSIS IN QUIESCENT CELLS” (THE TRUSTEES OF PRINCETON UNIVERSITY, priority 2011, published 2013)
